Results from patent US20240324594A1, “Method for Controlling Diamide Resistant Pests and Compounds Therefor” (priority 2021, published 2024).

Tested on: Resistant Plutella xylostella R1 (G4946E resistance mutation)
Experiment: Resistant Plutella xylostella R1 (Diamond back moth) larvicide L3, feeding/contact
Format: in vivo
Conditions: CTPR used as standard
Description: Resistant Plutella xylostella R1 (Diamond back moth) larvicide L3, feeding/contact Chinese cabbage plants were sprayed with diluted test solutions in an application chamber. Cut off leaves were placed into petri dishes with wetted filter paper and infested 1 day after application with 10 L3 multi-resistant Plutella xylostella larvae having the G4946E resistance mutation. Samples were assessed 4 days after infestation for mortality and growth regulation. CTPR was used as standard and a resistance factor of 146 was obtained for this strain.
Plutella xylostella resistant strain R1 originally collected from Taiwan in 2012 that carries the RyR mutation G4946E conferring resistance to diamides. The strain is reared on cabbage plants (Brassica oleracea) and selected approximately every two weeks with chlorantraniliprole.

For CNC(=O)c1cc(Cl)cc(C)c1NC(=O)c1cc(Br)nn1-c1ncccc1Cl [CTPR, chlorantraniliprole], the “resistance factor obtained for strain R1” value was 146.

Tested on: Resistant Plutella xylostella R4 (RyR mutation G4946E)
Experiment: Resistant Plutella xylostella R4 (Diamond back moth) larvicide L1, feeding/contact
Format: in vivo
Conditions: CTPR used as standard
Description: Resistant Plutella xylostella R4 (Diamond back moth) larvicide L1, feeding/contact 24-well microtiter plates with artificial diet were treated with aqueous test solutions prepared from 10,000 ppm DMSO stock solutions by pipetting. After drying, around 30 Plutella eggs were pipetted through a plastic stencil onto a gel blotting paper and the plate was closed with it. The samples were assessed for mortality in comparison to untreated samples 8 days after infestation. CTPR was used as standard and a resistance factor of 242 was obtained for this strain
Plutella xylostella resistant strain R4 originated in the lab in 2021 from crossing the R1 strain with a lab-reared susceptible P. xylostella strain (SUS). R4 can be reared and tested on artificial diet and also carries the RyR mutation G4946E conferring resistance to diamides. The strain is selected approximately every two weeks with chlorantraniliprole.

For CNC(=O)c1cc(Cl)cc(C)c1NC(=O)c1cc(Br)nn1-c1ncccc1Cl [CTPR, chlorantraniliprole], the “resistance factor obtained for strain R4” value was 242.

Tested on: Plutella xylostella (Diamond back moth) ryanodine receptor, containing the G4946E resistance mutation
Experiment: In vitro calcium fluorescence assay (Fluo-8 NW, FDSS) in human embryonic kidney cells expressing the ryanodine receptor
Format: cell-based
Conditions: HEK cells expressing P. xylostella RyR G4946E; EC50 normalized against in-assay reference cyantraniliprole; ratio <=1 means equally or more active
Description: Human embryonic kidney cells expressing the Plutella xylostella (Diamond back moth) ryanodine receptor, containing the G4946E resistance mutation, are loaded with Fluo-8 No Wash (NW) calcium-sensitive dye which responds by fluorescence to a change in intracellular calcium (e.g. stimulated by activation of ryanodine receptor). Test compounds are added in 10 rates to a 384-well plate containing dye-loaded cells and the fluorescent signal is measured using the Hamamatsu FDSS (Functional Drug Screening system). Dose-response curves are plotted to estimate the EC50. EC50 are normalized against an in-assay reference standard (cyantraniliprole) to address inter-assay variability. The ratio for a given compound is then obtained by the following formula: REC50=EC50 (compound)/EC50 (cyantraniliprole).

Compared with CNC(=O)c1c(NC(=O)c2cc(Cn3nnc(C(F)(F)F)n3)nn2-c2ncccc2Cl)c(C)cc2c1OC(F)(F)O2 [2-(3-chloro-2-pyridyl)-N-[2,2-difluoro-6-methyl-4-(methylcarbamoyl)-1,3-benzodioxol-5-yl]-5-[[5-(trifluoromethyl)tetrazol-2-yl]methyl]pyrazole-3-carboxamide], Cc1cc2c(c(C(N)=O)c1NC(=O)c1cc(Cn3nnc(C(F)(F)F)n3)nn1-c1ncccc1Cl)OC(F)(F)O2 [Compound P24, N-(4-carbamoyl-2,2-difluoro-6-methyl-1,3-benzodioxol-5-yl)-2-(3-chloro-2-pyridyl)-5-[[5-(trifluoromethyl)tetrazol-2-yl]methyl]pyrazole-3-carboxamide] is lower in “REC50 = EC50 (compound)/EC50 (cyantraniliprole)” value (“REC50 = EC50 (compound)/EC50” below): 5.77 for the first, 0.34 for the second.

Going from Cc1cc2c(c(C(N)=O)c1NC(=O)c1cc(Cn3cc(C(F)(F)F)nn3)nn1-c1ncccc1Cl)OC(F)(F)O2 [Compound P22, N-(4-carbamoyl-2,2-difluoro-6-methyl-1,3-benzodioxol-5-yl)-2-(3-chloro-2-pyridyl)-5-[[4-(trifluoromethyl)triazol-1-yl]methyl]pyrazole-3-carboxamide] to CNC(=O)c1c(NC(=O)c2cc(Cn3cc(C(F)(F)F)nn3)nn2-c2ncccc2Cl)c(C)cc2c1OC(F)(F)O2 [2-(3-chloro-2-pyridyl)-N-[2,2-difluoro-6-methyl-4-(methylcarbamoyl)-1,3-benzodioxol-5-yl]-5-[[4-(trifluoromethyl)triazol-1-yl]methyl]pyrazole-3-carboxamide], the “REC50 = EC50 (compound)/EC50” value rises from 0.91 to 2.55.

Compared with CNC(=O)c1c(NC(=O)c2cc(C(F)(F)F)nn2-c2ncccc2Cl)c(C)cc2c1OC(F)(F)O2 [2-(3-chloro-2-pyridyl)-N-[2,2-difluoro-6-methyl-4-(methylcarbamoyl)-1,3-benzodioxol-5-yl]-5-(trifluoromethyl)pyrazole-3-carboxamide], Cc1cc2c(c(C(=O)NC(C)C)c1NC(=O)c1cc(C(F)(F)F)nn1-c1ncccc1Cl)OC(F)(F)O2 [2-(3-chloro-2-pyridyl)-N-[2,2-difluoro-4-(isopropylcarbamoyl)-6-methyl-1,3-benzodioxol-5-yl]-5-(trifluoromethyl)pyrazole-3-carboxamide] is higher in “REC50 = EC50 (compound)/EC50” value: 4.65 for the first, 7.27 for the second.

First: Cc1cc2c(c(C(N)=O)c1NC(=O)c1cc(Cn3ncc(C(F)(F)F)n3)nn1-c1ncccc1Cl)OC(F)(F)O2 [Compound P21, N-(4-carbamoyl-2,2-difluoro-6-methyl-1,3-benzodioxol-5-yl)-2-(3-chloro-2-pyridyl)-5-[[4-(trifluoromethyl)triazol-2-yl]methyl]pyrazole-3-carboxamide]
Second: CNC(=O)c1c(NC(=O)c2cc(Cn3ncc(C(F)(F)F)n3)nn2-c2ncccc2Cl)c(C)cc2c1OC(F)(F)O2 [2-(3-chloro-2-pyridyl)-N-[2,2-difluoro-6-methyl-4-(methylcarbamoyl)-1,3-benzodioxol-5-yl]-5-[[4-(trifluoromethyl)triazol-2-yl]methyl]pyrazole-3-carboxamide]
The “REC50 = EC50 (compound)/EC50” value of the first is lower: 0.55 for the first, 6.26 for the second.

With Cc1cc2c(c(C(N)=O)c1NC(=O)c1cc(C(F)(F)F)nn1-c1ncccc1Cl)OC(F)(F)O2 [Compound P19, N-(4-carbamoyl-2,2-difluoro-6-methyl-1,3-benzodioxol-5-yl)-2-(3-chloro-2-pyridyl)-5-(trifluoromethyl)pyrazole-3-carboxamide] the “REC50 = EC50 (compound)/EC50” value was 0.50.

Tested on: not given
Experiment: not given
Conditions: not given

Cc1cc2nn[nH]c2c(C(N)=O)c1NC(=O)c1cc(OCC(F)(F)F)nn1-c1ncccc1Cl and Cc1cc2nn[nH]c2c(C(N)=O)c1NC(=O)c1cc(OC(F)F)nn1-c1ncccc1Cl cannot be ordered by melting point: 142.2 to 160.3 °C for the first, 147.5 to 161.2 °C for the second.

Compared with Cc1cc2c(c(C(N)=O)c1NC(=O)c1cc(OCC(F)(F)F)nn1-c1ncccc1Cl)OC(F)(F)O2, Cc1cc2cn[nH]c2c(C(N)=O)c1NC(=O)c1cc(Cn2nnc(C(F)(F)F)n2)nn1-c1ncccc1Cl is lower in melting point: 240 to 245 °C for the first, 233 to 240 °C for the second.

Cc1nc2cc(C)c(NC(=O)c3cc(Br)nn3-c3ncccc3Cl)c(C(N)=O)c2o1 showed a melting point greater than 250 °C.
